Test results taken from PMC4233664, “Synergistic Effects of Clopidogrel and Fufang Danshen Dripping Pills by Modulation of the Metabolism Target and Pharmacokinetics” (Evidence-based Complementary and Alternative Medicine : eCAM, 2014).
Values belong to the compound of their own block, whether it stands above or below them.

Legend:
[1] = Pharmacokinetic study of CPGS in rat plasma after oral clopidogrel alone or with FDDP; type: in vivo, SD rats
Procedure: Analyses were performed using the Agilent HPLC 1100 system (Agilent, USA) consisting of a quat pump (G1311A), an autosampler (G1313A), and an online degasser (G1322A). The chromatographic separation was performed on an Agilent Zorbax SB C18 column (4.6 mm × 250 mm, 5 μm). A simple gradient method was used, in which the percentage of acetonitrile-buffer (0.2% phosphoric acid in water) was varied as shown in Table 1 at a flow rate of 1.0 mL/min. The injection volume was 10 μL. The total LC run time was 12 min with the column temperature kept at 30°C and the detection at a wavelength of 220 nm.
An aliquot of 10 μL 1 M hydrochloric acid (HCL), 100 μL blood plasma, and 10 μL of IS (160 μg/mL) was added into a 1.5 mL centrifuge tube. After vortex-mixing for 1 min, 1 mL of extraction solvent (ethyl acetate-dichloromethane; 4 : 1, V/V) was added and vortexed vigorously for 4 min, followed by centrifugation for 12 min at 12000 rpm. Next, 950 μL of supernatant was transferred into another tube and evaporated to dryness at 40°C for 90 min under a gentle stream of nitrogen. The residue was reconstituted with 100 μL of the mobile phase and vortexed for 1 min and then centrifuged for 5 min at 12000 rpm. For analysis, 10 μL of the supernatant was injected onto the HPLC system. The plasma concentrations of the analytes exceeded the upper limit of quantification, and therefore the sample was diluted with blank plasma and vortexed for 1 min. A 100 μL aliquot of diluted sample was processed under the same sample pretreatment procedure as mentioned above.
The preclinical pharmacokinetic study was based on 16 SD rats. The investigation was approved by the Animal Ethics Committee of the Nanjing University of Traditional Chinese Medicine. Two groups of 8 rats each were used according to a parallel study. The clopidogrel-only group received 30 mg/kg oral administration of clopidogrel. The combination group (clopidogrel 30 mg/kg + FDDP 324 mg/kg) received their dose administered as a combination. The rats fasted for 12 h prior to the experiment, while free access to water remained. Plasma samples were collected at 0, 0.25, 0.5, 1, 1.5, 2.3, 4, 6, 8, 10, 12, and 24 h after dosing. Blood samples of 400 μL were obtained via an in-dwelling catheter in the caudal vein and collected into heparinized tubes. Then, the plasma was centrifuged for 10 min at 4000 rpm and the supernatant was transferred to labelled plastic vials at −80°C until the completion of the analysis.
Pharmacokinetic parameters were calculated using Drug and Statistic (DAS) 3.0 pharmacokinetic software (Chinese Pharmacological Association, Anhui, China). The pharmacokinetic parameters included the compartment parameters and statistical parameters (Table 6).
The area under the plasma concentration-time curve (AUC) was calculated using the linear trapezoidal rule. The elimination rate constant (kel) was calculated by linear regression of the terminal points of the semilog plot of the plasma concentration against time. The half-life of drug elimination during the terminal phase (t 1/2) was calculated from the formula t 1/2 = 0.693/kel. Mean residence time (MRT) was calculated as AUMC/AUC, where AUMC is the area under the first moment of the plasma concentration-time curve. The volume of distribution (Vd) of the central compartment was calculated as dose/C 0, where C 0 is the concentration measured just after the administration. Plasma clearance (CL) was calculated as dose/AUC.

[2] = Stability of CPGS in plasma samples (HPLC method validation); type: physicochemical, rat
Procedure: Stability experiments were performed to evaluate the analyte stability in stock solutions and in plasma samples under different conditions. Room temperature stability, refrigerated stability of extracted sample, freeze-thaw stability, and long-term stability were performed using three replicates at each QC level.

[3] = system: carboxyl esterase 1 (CES1); conditions: in the liver; cited from earlier work
cytochrome P450 (CYP) = conditions: cited from earlier work
antiplatelet responses = conditions: conventional doses of clopidogrel; cited from earlier work
[4] = CPGS in rat plasma, clopidogrel 30 mg/kg intragastric, administered alone, 21 days
[5] = CPGS in rat plasma, coadministration clopidogrel 30 mg/kg + FDDP 324 mg/kg intragastric, 21 days
[6] = CPGS in rat plasma, coadministration clopidogrel 30 mg/kg + FDDP 324 mg/kg intragastric, 21 days, P < 0.05 vs clopidogrel-only
[7] = combination vs clopidogrel alone, rats
[8] = combination vs clopidogrel-only group, rats
[9] = combination vs clopidogrel-only group, rats, not statistically significant

AUC (0–tn) [1, 4]: 90.529 ± 18.557 mg/L∗h
AUC (0–∞) [1, 4]: 104.965 ± 24.367 mg/L∗h
CL/F [1, 4]: 5.15 ± 2.08 mL/min/kg
Ka [1, 4]: 6.807 ± 6.698
MAT [1, 4]: 13.336 ± 2.566 h
MRT (0–tn) [1, 4]: 7.453 ± 0.747 h
MRT (0–∞) [1, 4]: 11.359 ± 2.022 h
T1/2β [1, 4]: 14.788 ± 14.311 h
T max [1, 4]: 1.208 ± 0.332 h
V/F [1, 4]: 5.079 ± 2.153 L/kg
AUC (0–tn) [1, 5]: 70.314 ± 35.213 mg/L∗h
AUC (0–∞) [1, 5]: 76.324 ± 39.971 mg/L∗h
C max [1, 5]: 10146 ± 4848 ng/mL
CL/F [1, 5]: 7.58 ± 3.07 mL/min/kg
Ka [1, 5]: 2.519 ± 3.073
MRT (0–tn) [1, 5]: 6.871 ± 0.741 h
T1/2β [1, 5]: 19.495 ± 18.931 h
T max [1, 5]: 1.583 ± 0.376 h
V/F [1, 5]: 9.987 ± 9.820 L/kg
MAT [1, 6]: 8.198 ± 3.556 h
MRT (0–∞) [1, 6]: 8.854 ± 1.873 h
Change of area under the curve of CPGS by FDDP [1, 7]: decreased
Change of peak plasma concentration of CPGS by FDDP [1, 7]: decreased
Change of MAT of CPGS in the combination group [1, 8]: greater degrees of decline
Change of MRT (0-∞) of CPGS in the combination group [1, 8]: greater degrees of decline
Change of CL/F of CPGS in the combination group [1, 9]: slightly higher
Change of T max of CPGS in the combination group [1, 9]: slightly higher
Pharmacokinetic model describing CPGS ([1]; rat plasma after clopidogrel alone or with FDDP): two-compartment open model
Stability in extracted plasma samples ([2]; 24 h at room temperature): stable
Long-term stability of spiked plasma samples ([2]; stored at −20°C, 20 days): stable
SMILES: O=C(O)[C@H](c1ccccc1Cl)N1CCc2sccc2C1 [CPGS]

SMILES: COC(=O)[C@H](c1ccccc1Cl)N1CCc2sccc2C1 [clopidogrel]
Share of absorbed parent drug transformed by CES1 into inactive carboxylic acid derivative (CPGS) [3]: 85%
Share of absorbed clopidogrel dose transformed by CYP into thiol metabolite (cytochrome P450 (CYP)): 15%
Patients displaying inadequate antiplatelet responses (antiplatelet responses): 5–40%
